In the NIST ThermoML archive (doi:10.1021/je501051p):
Numbers after ± are expanded uncertainties.

Test: mn = molality of the nth substance listed, in mol/kg
Conditions: 303 K, Ring tensiometer

CCCCCCCCCCc1ccc(C(=O)[O-])cn1.[Na+] [sodium 6-decylnicotinate] + O
Conditions | surface tension liquid-gas [mN/m]
m1 = 1e-05 | 65 ± 2.1
m1 = 1.479e-05 | 63.7 ± 2.1
m1 = 2.512e-05 | 62.02 ± 2.1
m1 = 4.074e-05 | 59.6 ± 2.1
m1 = 5.495e-05 | 58.45 ± 2.1
m1 = 7.586e-05 | 56.75 ± 2.1
m1 = 0.0001 | 55.75 ± 2.1
m1 = 0.000123 | 54.56 ± 2.1
m1 = 0.0001514 | 53.1 ± 2.1
m1 = 0.000182 | 51.77 ± 2.1
m1 = 0.0002042 | 50.5 ± 2.1
m1 = 0.0002512 | 49.5 ± 2.1
m1 = 0.000302 | 48.5 ± 2.1
m1 = 0.0003548 | 47 ± 2.1
m1 = 0.0004074 | 47 ± 2.1
m1 = 0.0005012 | 47 ± 2.1
m1 = 0.0006166 | 47 ± 2.1
m1 = 0.0008128 | 46.5 ± 2.1
m1 = 0.001 | 46 ± 2.1
m1 = 0.001514 | 45.6 ± 2.1
m1 = 0.002042 | 45 ± 2.1
m1 = 0.002291 | 44.5 ± 2.1
m1 = 0.002512 | 44 ± 2.1
m1 = 0.002754 | 43.5 ± 2.1
m1 = 0.00302 | 42.5 ± 2.1
m1 = 0.003311 | 42.5 ± 2.1
m1 = 0.003548 | 42.5 ± 2.1
m1 = 0.004074 | 42.5 ± 2.1
m1 = 0.005012 | 42.5 ± 2.1
m1 = 0.006026 | 42.5 ± 2.1

CCCCCCCCc1ccc(C(=O)[O-])cn1.[Na+] [sodium 6-octylnicotinate] + O
Conditions | surface tension liquid-gas [mN/m]
m1 = 5e-05 | 69 ± 2.2
m1 = 7.145e-05 | 68.3 ± 2.1
m1 = 0.0001 | 67 ± 2.1
m1 = 0.0001545 | 66 ± 2.1
m1 = 0.0002512 | 64.9 ± 2.1
m1 = 0.0003972 | 63.6 ± 2.1
m1 = 0.0006397 | 61.8 ± 2.1
m1 = 0.001 | 60 ± 2.1
m1 = 0.0015 | 58.4 ± 2.1
m1 = 0.002 | 57.4 ± 2.1
m1 = 0.0025 | 57.4 ± 2.1
m1 = 0.002999 | 57.4 ± 2.1
m1 = 0.003999 | 57.4 ± 2.1
m1 = 0.005 | 56 ± 2.1
m1 = 0.006427 | 54.22 ± 2.1
m1 = 0.009016 | 52.4 ± 2.1
m1 = 0.01 | 49.5 ± 2.1
m1 = 0.013 | 48 ± 2.1
m1 = 0.015 | 47.5 ± 2.1
m1 = 0.01702 | 45 ± 2.1
m1 = 0.02 | 44 ± 2.1
m1 = 0.025 | 44 ± 2.1
m1 = 0.02999 | 44 ± 2.1
m1 = 0.03499 | 44 ± 2.1

CCCCCCCCCCc1ccc(C(=O)NCC(=O)[O-])cn1.[Na+] [sodium (6-decylnicotinoyl)glycinate] + O
Conditions | surface tension liquid-gas [mN/m]
m1 = 1.995e-05 | 64.7 ± 2.1
m1 = 2.818e-05 | 61.8 ± 2.1
m1 = 4.786e-05 | 59.4 ± 2.1
m1 = 5.888e-05 | 58.1 ± 2.1
m1 = 8.128e-05 | 56.6 ± 2.1
m1 = 0.0001148 | 55.2 ± 2.1
m1 = 0.0001514 | 53.2 ± 2.1
m1 = 0.0002512 | 52.5 ± 2.1
m1 = 0.000302 | 50 ± 2.1
m1 = 0.0005012 | 47 ± 2.1
m1 = 0.0008128 | 46 ± 2.1
m1 = 0.001 | 45 ± 2.1
m1 = 0.001514 | 44 ± 2.1
m1 = 0.002042 | 43 ± 2.1
m1 = 0.002291 | 42 ± 2.1
m1 = 0.002512 | 40.5 ± 2.1
m1 = 0.00302 | 40.5 ± 2.1
m1 = 0.003548 | 40.5 ± 2.1
m1 = 0.004074 | 40.5 ± 2.1
m1 = 0.005012 | 40.5 ± 2.1
m1 = 0.006026 | 40.5 ± 2.1
